Test results reported in paper PMC12211128, “Safety, tolerability, pharmacokinetic and pharmacodynamic effects of the muscarinic M1 positive allosteric modulator VU0467319 for Alzheimer’s disease: a single ascending-dose study in healthy participants” (Alzheimer's Research & Therapy, 2025).

Test system: healthy participants
Test: N-back sequential letter task
Assay type: in vivo, human
Conditions: for N-Back 0-back Sensitivity (d’) / N-Back 1-back Sensitivity / N-Back 2-back Sensitivity / N-Back 3-back Sensitivity: mean (SD)
Description: A visually presented N-back sequential letter task was used to assess working memory performance, wherein participants saw a string of consonants (except L, W, and Y), presented in upper case letters, one every 3 s. Four conditions were presented: 0-back, 1-back, 2-back, and 3-back. The main outcome variable of the n-back task was sensitivity (d’) for each of the four conditions, calculated as: d’ = Z (Hit)– Z (False alarms).
Cognitive data: In this exploratory analysis, each outcome variable of the cognitive data was examined in a mixed model analysis of variance with one between-subjects factor of VU319 dose (0, 60, 120, 240, 400, 600 mg) and a within-subjects factor of testing session (pre-dose vs. post-dost administration). Post-hoc analysis compared each of the VU319 dose cohorts against the placebo group. Because the participants were healthy adults with normal cognitive function, we considered effects between no reductions in function to small improvement (d = 0.0–0.20) to be a positive result. For the food effect study, only the participants who received VU319 were examined due to the disproportionately small placebo group (n = 2). A within-subjects ANOVA including food condition (fasted/fed) and testing session (pre-dose vs. post-dose administration) was performed on each outcome variable.
A visually presented N-back sequential letter task (Jonides et al., 1997; Saykin et al., 2004) was used to assess working memory performance, wherein participants saw a string of consonants (except L, W, and Y), presented in upper case letters, one every 3 s. Four conditions were presented: 0-back, 1-back, 2-back, and 3-back. The 0-back control condition required participants to decide if the current letter matched a single target letter that was specified before the epoch began. In each of the 1-back, 2-back, and 3-back conditions, the task is to decide whether the letter currently presented matches the letter that has been presented 1, 2, or 3 back in the sequence. The 0-, 1-, 2-, and 3-back conditions were performed in two blocks of 27 trials each for a total of 216 trials. The blocks were presented in a counterbalanced order such that the same condition was not repeated two times in a row. The main outcome variable of the n-back task was sensitivity (d’) for each of the four conditions, calculated as: d’ = Z (Hit) – Z (False alarms).

[1] = Food effect study 120 mg, Fasting, Post-Drug
[2] = Food effect study 120 mg, Fasting, Pre-Drug
[3] = Food effect study 120 mg, Fed, Post-Drug
[4] = Food effect study 120 mg, Fed, Pre-Drug

Cn1cc2c(-c3cc(F)c(CN4Cc5ncccc5C4=O)c(F)c3)cccc2n1 [VU319]
N-back 2-back d', vs placebo, effect size d (400 mg, p = 0.12): 0.87
N-back 1-back d', vs placebo, effect size d (600 mg, p = 0.12): 0.86
N-Back 0-back Sensitivity (d’) [1]: 5.15 (1.1)
N-Back 1-back Sensitivity [1]: 3.38 (2.09)
N-Back 2-back Sensitivity [1]: 2.3 (1.64)
N-Back 3-back Sensitivity [1]: 1.96 (1.4)
N-Back 0-back Sensitivity (d’) [2]: 4.64 (1.22)
N-Back 1-back Sensitivity [2]: 5.01 (0.93)
N-Back 2-back Sensitivity [2]: 3.79 (1.18)
N-Back 3-back Sensitivity [2]: 2.55 (1.42)
N-Back 0-back Sensitivity (d’) [3]: 4.62 (1.32)
N-Back 1-back Sensitivity [3]: 4.13 (1.6)
N-Back 2-back Sensitivity [3]: 2.89 (1.42)
N-Back 3-back Sensitivity [3]: 2.53 (0.97)
N-Back 0-back Sensitivity (d’) [4]: 4.67 (1.4)
N-Back 1-back Sensitivity [4]: 5.42 (0.99)
N-Back 2-back Sensitivity [4]: 3.75 (1.21)
N-Back 3-back Sensitivity [4]: 2.29 (0.65)
N-Back 0-back Sensitivity (d’) (SAD study, 60 mg, Post-Drug): 5.37 (1.26)
N-Back 1-back Sensitivity (SAD study, 60 mg, Post-Drug): 4.99 (1.48)
N-Back 2-back Sensitivity (SAD study, 60 mg, Post-Drug): 3.12 (1.22)
N-Back 3-back Sensitivity (SAD study, 60 mg, Post-Drug): 2.11 (0.36)
N-Back 0-back Sensitivity (d’) (SAD study, 60 mg, Pre-Drug): 5.64 (0.84)
N-Back 1-back Sensitivity (SAD study, 60 mg, Pre-Drug): 5.01 (1.17)
N-Back 2-back Sensitivity (SAD study, 60 mg, Pre-Drug): 3.35 (0.91)
N-Back 3-back Sensitivity (SAD study, 60 mg, Pre-Drug): 2.65 (0.49)
N-Back 0-back Sensitivity (d’) (SAD study, 120 mg, Post-Drug): 5.37 (1.26)
N-Back 1-back Sensitivity (SAD study, 120 mg, Post-Drug): 4.46 (1.35)
N-Back 2-back Sensitivity (SAD study, 120 mg, Post-Drug): 3.25 (2.19)
N-Back 3-back Sensitivity (SAD study, 120 mg, Post-Drug): 1.75 (1.14)
N-Back 0-back Sensitivity (d’) (SAD study, 120 mg, Pre-Drug): 5.64 (0.84)
N-Back 1-back Sensitivity (SAD study, 120 mg, Pre-Drug): 4.91 (1.08)
N-Back 2-back Sensitivity (SAD study, 120 mg, Pre-Drug): 3.28 (1.98)
N-Back 3-back Sensitivity (SAD study, 120 mg, Pre-Drug): 2.34 (1.12)
N-Back 0-back Sensitivity (d’) (SAD study, 240 mg, Post-Drug): 6.18 (0)
N-Back 1-back Sensitivity (SAD study, 240 mg, Post-Drug): 4.32 (2.3)
N-Back 2-back Sensitivity (SAD study, 240 mg, Post-Drug): 3.42 (2.29)
N-Back 3-back Sensitivity (SAD study, 240 mg, Post-Drug): 1.66 (0.83)
N-Back 0-back Sensitivity (d’) (SAD study, 240 mg, Pre-Drug): 6.18 (0)
N-Back 1-back Sensitivity (SAD study, 240 mg, Pre-Drug): 4.72 (2.02)
N-Back 2-back Sensitivity (SAD study, 240 mg, Pre-Drug): 3.77 (1.84)
N-Back 3-back Sensitivity (SAD study, 240 mg, Pre-Drug): 2.37 (0.81)
N-Back 0-back Sensitivity (d’) (SAD study, 400 mg, Post-Drug): 6.18 (0)
N-Back 1-back Sensitivity (SAD study, 400 mg, Post-Drug): 5.37 (1.26)
N-Back 2-back Sensitivity (SAD study, 400 mg, Post-Drug): 3.6 (1.84)
N-Back 3-back Sensitivity (SAD study, 400 mg, Post-Drug): 2.01 (0.74)
N-Back 0-back Sensitivity (d’) (SAD study, 400 mg, Pre-Drug): 6.18 (0)
N-Back 1-back Sensitivity (SAD study, 400 mg, Pre-Drug): 5.64 (0.84)
N-Back 2-back Sensitivity (SAD study, 400 mg, Pre-Drug): 3.54 (1.69)
N-Back 3-back Sensitivity (SAD study, 400 mg, Pre-Drug): 2.34 (0.74)
N-Back 0-back Sensitivity (d’) (SAD study, 600 mg, Post-Drug): 5.27 (1.43)
N-Back 1-back Sensitivity (SAD study, 600 mg, Post-Drug): 5.09 (1.06)
N-Back 2-back Sensitivity (SAD study, 600 mg, Post-Drug): 4.43 (1.72)
N-Back 3-back Sensitivity (SAD study, 600 mg, Post-Drug): 2.94 (1.3)
N-Back 0-back Sensitivity (d’) (SAD study, 600 mg, Pre-Drug): 5.57 (0.95)
N-Back 1-back Sensitivity (SAD study, 600 mg, Pre-Drug): 5.07 (0.59)
N-Back 2-back Sensitivity (SAD study, 600 mg, Pre-Drug): 4.31 (1.69)
N-Back 3-back Sensitivity (SAD study, 600 mg, Pre-Drug): 3.3 (1.02)
N-back d' score, effect of dose (SAD study, four conditions, all p > 0.2): did not show a significant effect of dose, nor dose by time
N-back 2-back sensitivity, effect of time of testing, effect size d (food effect study, 120 mg, p = 0.004, not related to food condition): 2.55
N-back 1-back sensitivity, effect of time of testing, effect size d (food effect study, 120 mg, p = 0.015, not related to food condition): 2.0
